Measurements taken from patent US9199922B2, “Dihalophenoxyphenylamidines and use thereof as fungicides” (BAYER INTELLECTUAL PROPERTY GMBH, priority 2007, dated 2015).
Read-outs that look alike come from different tables or passages of the source.

Assay: logP determination (acidic / neutral)
Assay type: physicochemical
[1] = pH 2.3, read-out: log P (pH 2.3)

SMILES | logP acidic | logP neutral (neutral) | logP (neutral, read-out: logP neutral) | logP [1] | log P (pH 2.3) (pH 2.3)
Cc1cc(Oc2cc(F)cc(I)c2)c(C)cc1N=CN1CCCC1 [Compound 22] | 2.46 | 6.6 | – | – | –
Cc1cc(Oc2cc(F)cc(I)c2)c(C)cc1N=CN1CCCCC1 [Compound 21] | 2.6 | 6.8 | – | – | –
Cc1cc(Oc2cc(F)cc(Br)c2)c(C)cc1N=CN1CCCCC1 [Compound 12] | 2.55 | 6.5 | – | – | –
CCCN(C)C=Nc1cc(C)c(Oc2cc(F)cc(F)c2)cc1C [Compound 33] | 2.04 | 5.54 | – | – | –
CCN(C)C=Nc1cc(C)c(Oc2ccc(Br)c(I)c2)cc1C [Compound 27] | 2.67 | 6.1 | – | – | –
CCN(C)C=Nc1cc(C)c(Oc2ccc(Cl)c(Br)c2)cc1C [Compound 15] | 2.23 | 6.1 | – | – | –
CCN(C)C=Nc1cc(C)c(Oc2cc(Br)cc(Br)c2)cc1C [Compound 4] | 2.5 | 6 | – | – | –
C=CCN(C)C=Nc1cc(C)c(Oc2ccc(Br)c(Br)c2)cc1C [Compound 37] | 2.24 | 6.3 | – | – | –
Cc1cc(Oc2cc(F)cc(Cl)c2)c(C)cc1N=CN1CCCC1 [Compound 10] | 2.26 | 5.6 | – | – | –
CCCN(C)C=Nc1cc(C)c(Oc2ccc(Cl)c(Br)c2)cc1C [Compound 17] | 2.64 | 6.6 | – | – | –
CCN(C)C=Nc1cc(C)c(Oc2cc(F)cc(Cl)c2)cc1C [Compound 8] | 2.21 | 5.6 | – | – | –
Cc1cc(Oc2cc(F)cc(Cl)c2)c(C)cc1N=CN1CCCCC1 [Compound 9] | 2.42 | 6.3 | – | – | –
CCN(C)C=Nc1cc(C)c(Oc2ccc(Br)c(F)c2)cc1C [Compound 32] | 2.2 | – | – | – | –
Cc1cc(Oc2cc(F)cc(Br)c2)c(C)cc1N=CN(C)CC1CC1 [Compound 40] | 2.25 | – | – | – | –
CCN(C)C=Nc1cc(C)c(Oc2ccc(F)c(Br)c2)cc1C [Compound 23] | 2.29 | 5.7 | – | – | –
Cc1cc(Oc2cc(F)cc(Br)c2)c(C)cc1N=CN1CC(C)OC(C)C1 (stereo not shown) [Compound 29] | 2.59 | 5.8 | – | – | –
Cc1cc(Oc2ccc(Cl)c(Br)c2)c(C)cc1N=CN1CCCCC1 [Compound 16] | 2.66 | 6.9 | – | – | –
CCN(C)C=Nc1cc(C)c(Oc2cc(Cl)cc(Br)c2)cc1C [Compound 6] | 2.56 | 6.4 | – | – | –
CCN(C)C=Nc1cc(C)c(Oc2cc(F)cc(Br)c2)cc1C [Compound 3] | 2.29 | 5.8 | – | – | –
Cc1cc(Oc2ccc(Cl)c(I)c2)c(C)cc1N=CN(C)C(C)C [Compound 24] | 2.4 | 6.2 | – | – | –

SMILES | logP acidic | logP neutral (neutral) | logP (neutral, read-out: logP neutral) | logP [1] | log P (pH 2.3) (pH 2.3)
CCN(C)C=Nc1cc(C)c(Oc2cc(F)cc(I)c2)cc1C [Compound 19] | 2.4 | – | – | – | –
Cc1cc(Oc2cc(Cl)cc(Br)c2)c(C)cc1N=CN(C)C(C)C [Compound 7] | 2.7 | 6.8 | – | – | –
CCN(C)C=Nc1cc(C)c(Oc2ccc3c(c2)CCCC3)cc1C [Compound 13] | 2.37 | 5.7 | – | – | –
CCN(C)C=Nc1cc(C)c(Oc2ccc(F)c(F)c2)cc1C [Compound 2] | 2.37 | 6.2 | – | – | –
CCN(C)C=Nc1cc(C)c(Oc2ccc(Cl)c(Cl)c2)cc1C [Compound 30, N-Ethyl-N-methyl-N′-[4-(3,4-dichlorophenoxy)-2,5-dimethylphenyl]formamidine] | – | – | 6.07 | 2.48 | –
CCCN(C)C=Nc1cc(C)c(Oc2cc(F)cc(I)c2)cc1C [Compound 20] | 2.61 | 6.6 | – | – | –
CCCN(C)C=Nc1cc(C)c(Oc2cc(F)cc(Br)c2)cc1C [Compound 28] | 2.91 | 6.9 | – | – | –
Cc1cc(Oc2ccc(Cl)c(I)c2)c(C)cc1N=CN1CCCCC1 [Compound 26] | 2.52 | – | – | – | –
CCCN(C)C=Nc1cc(C)c(Oc2ccc(Br)c(Br)c2)cc1C [Compound 38] | 2.45 | 6.62 | – | – | –
Cc1cc([N+](=O)[O-])c(C)cc1Oc1ccc(Cl)c(Cl)c1 [4-(3,4-Dichlorophenoxy)-2,5-dimethylnitrobenzene] | – | – | – | – | 5.19
Cc1cc(Oc2cc(Br)cc(Br)c2)c(C)cc1N=CN(C)C(C)C [Compound 5] | 2.62 | 6.4 | – | – | –
CCCN(C)C=Nc1cc(C)c(Oc2cc(F)cc(Cl)c2)cc1C [Compound 11] | 2.39 | 6.1 | – | – | –
Cc1cc(Oc2ccc(Br)c(F)c2)c(C)cc1N=CN1CCCCC1 [Compound 31] | 2.39 | – | – | – | –
Cc1cc(Oc2ccc(Br)c(Br)c2)c(C)cc1N=CN1CCCCC1 [Compound 39] | 2.48 | 6.93 | – | – | –
CCN(C)C=Nc1cc(C)c(Oc2ccc(Cl)c(I)c2)cc1C [Compound 25] | 2.29 | – | – | – | –
Cc1cc(Oc2cc(F)cc(F)c2)c(C)cc1N=CN1CCCCC1 [Compound 35] | 2.03 | 5.79 | – | – | –
Cc1cc(Oc2ccc(Cl)c(Cl)c2)c(C)cc1N [4-(3,4-Dichlorophenoxy)-2,5-dimethylaniline] | – | – | – | 3.51 | –
CCCN(C)C=Nc1cc(C)c(Oc2cc(F)cc(Br)c2)cc1C [Compound 14] | 2.37 | 7.4 | – | – | –
Cc1cc(Oc2ccc(Cl)c(Br)c2)c(C)cc1N=CN1CCCC1 [Compound 18] | 2.56 | 6.6 | – | – | –
